Marks after values point to notes of the source that are not given here.
Columns and labels:
11β-HSD1 [1] = target: T1, 11β-HSD1 (Homo sapiens, UniProt P28845); test: Human keratinocytes assay: 11β-HSD1 activity (cortisone to cortisol); format: cell-based; details: 48 h
Experimental: Cell Culture: Primary human skin keratinocytes obtained from CelINTec advanced Cell Systems were maintained in CnT-PR medium at 37° C. in a humidified 5% CO2-air atmosphere. Cells were subcultured before reaching confluence.
Assessment of 11β-HSD1 activity: Human primary keratinocytes were pre-cultured in complete culture media (CnT-PR, CelINTec) to 90% of confluence. Subsequently cells were washed twice with PBS-buffer to remove remaining corticosteroids and media were exchanged to custom made hydrocortisone-free media.
Calculation: % remaining 11β-HSD1 activity=(cortisol-level with inhibitor/cortisol-level without inhibitor)*100%

[2] = tested on: Human skin from abdominal plastic surgery; test: Ex vivo: total dermal collagen after cortisone and cortisone/inhibitor treatment; format: cell-based; details: day 6; for Dermal collagen: untreated set to 100%
Experimental: Human skin from abdominal plastic surgery was used. The skin samples were cut in pieces of ˜8×3 mm (ø×thickness) and cultured up to day 6 in an air-liquid interface in a perforated ring of stainless steel in contact with a culture medium (modified Williams' E medium), while renewing the culture medium on day 3. Six skin specimens were used for each test sample. Each test sample (4 μl) was applied topically on top of each piece after cleaning of the surface with a cotton pad, which was subsequently covered with a 6 ø mm delivery membrane, this procedure was repeated daily. After 6 days skin sections were stained with Picrosirius Red histochemical staining, that dyes collagen fibers in purple-red. The papillary dermis was selected for the analysis. The different colors of the pictures were separated by using a deconvolution matrix. After deconvolution only pink-reddish images are used. Within these images the evaluation of dermal collagen was performed by estimating both color intensity and distribution with IMAGE J (NIH) analysis software. Two slides of each skin sample were processed by image acquisition and related analysis (i.e. 12 images for each treatment).

[3] = tested on: Human skin from abdominal plastic surgery; test: Ex vivo: total dermal collagen III after UV-irradiation; format: cell-based; details: for Increase versus UV treatment (#2): day 6; for Dermal collagen III: daily UV 6 J/cm^2, day 6, non UV treated set to 100%
Experimental: Human skin from abdominal plastic surgery classified as “Intermediate” (ITA° angle=42°) was used. The skin samples were cut in pieces of approx. 8×3 mm (0×thickness) and cultured up to day 6 in an air-liquid interface in a perforated ring of stainless steel in contact with a culture medium (modified Williams' E medium, while renewing the culture medium on day 3. Six skin specimens were used for each test sample. Each test sample (4 μl) was topically applied on top of each piece after gentle cleaning of the surface with a cotton pad, which was subsequently covered with a 6 ø mm delivery membrane, this procedure was repeated daily. The samples were irradiated daily with 80% of the Biological effective dose for daylight (i.e. 6 J/cm^2) using an adopted BIO-SUN system (Vilber Lourmat). At day 6 twelve skin sections were immunostained with mouse monoclonal anti-collagen III antibody (Sigma cat #c7805). The papillary dermis was selected for the analysis. The evaluation was performed by estimating both color intensity and distribution with IMAGE J (NIH) analysis software. Two slides of each skin sample have been processed by image acquisition and related analysis (i.e. 12 images for each treatment).

11β-HSD1 [4] = target: T1, 11β-HSD1; test: 11β-HSD1 enzyme activity assay in cell lysates of transfected HEK-293 cells (HHH7 clone); format: biochemical; parameters: expressed in transfected cells; host or cells: HEK-293 (HHH7 clone), used as cell lysate; details: 200 nM cortisone, 450 μM NADPH, 10 min
Experimental: Stably transfected human embryonic kidney (HEK-293) cells expressing 11β-HSD1 and hexose-6-phosphate dehydrogenase (the so called HHH7 clone) were cultivated for 48 h in Dulbecco's modified Eagle medium (DMEM) containing 4.5 g/L glucose, 10% fetal bovine serum, 100 U/mL penicillin, 0.1 mg/mL streptomycin, 1×MEM nonessential amino acids, and 10 mM HEPES buffer, pH 7.4. The cells were then washed with phosphate-buffered saline, and centrifuged for 4 min at 150×g. After removal of the supernatants, cell pellets were snap frozen on dry ice and stored at −80° C. until further use.
Cell lysates were incubated for 10 min at 37° C. in TS2 buffer (100 mM NaCl, 1 mM EGTA, 1 mM EDTA, 1 mM MgCl2, 250 mM sucrose, 20 mM Tris-HCl, pH 7.4) in a final volume of 22.2 μL containing either solvent (0.1% DMSO) or the inhibitor at the respective concentration as indicated in Table 4 (see below).
The steroids were separated by TLC, using methanol-chloroform (1:9) as solvent, followed by scintillation counting and calculation of substrate concentration. Data were collected from four independent measurements (standard deviation<10%).

[5] = Solubility in cosmetic oils from saturated mixtures (UPLC); format: physicochemical; details: 7 days at room temperature (22° C.); for Solubility in cosmetic oils: Cetiol B: Cetiol B (dibutyl adipate); for Solubility in cosmetic oils: DUB DIS: DUB DIS (diisopropyl sebacate); for Solubility in cosmetic oils: Finsolv EB: Finsolv EB (ethylhexyl benzoate)
Experimental: H2O+0.02% TFA (A phase) and MeCN+0.02% TFA (B phase) were used as eluents, with a flow of 0.5 mL/min.
The solubility of selected compounds was tested in the cosmetic oils Cetiol B (INCI name: dibutyl adipate from BASF Personal Care), DUB DIS (INCI name: diisopropyl sebacate from Stearinerie Dubois) and Finsolv EB ((INCI name: ethylhexyl benzoate from Innospec Performance Chemicals).
Samples of about 1 mg of the compounds to be tested were exactly weighted and dissolved in 90% MeCN(aq) to provide 0.1% (1000 ppm) w/v stock solutions. Aliquots of the stock solutions were diluted with 90% MeCN(aq) to provide 10, 100 and 250 ppm diluted solutions, which were tested by UPLC.
For each compound to be tested about 20 mg material were weighted in three microcentrifuge tubes and to each tube about 150 mg of one cosmetic oil were added, as reported in Table 5 below.
After mixing on a Vortex mixer for 5 min, the respective samples were mixed on a waving platform shaker (20 cycles/min) for 7 days at room temperature (22° C.). After that time, the tubes were centrifuged for 5 min at 12000 rpm, 10 μL samples of the supernatant were diluted to 1.00 mL with MeOH, 100 μL of these solutions were diluted to 1.00 mL with 90% MeCN(aq) and subsequently analyzed by UPLC. The compound concentration in each solution was calculated using the respective calibration curve. From the compound concentration in the diluted solutions the concentrations of the respective parent mixtures was calculated accordingly.

[6] = 10 μM in DMSO, cortisone/inhibitor treatment, topical daily
[7] = 100 μM in DMSO, cortisone/inhibitor treatment, topical daily
[8] = 200 μM in DMSO, cortisone/inhibitor treatment, topical daily

T1 sequence (P28845 whole entry): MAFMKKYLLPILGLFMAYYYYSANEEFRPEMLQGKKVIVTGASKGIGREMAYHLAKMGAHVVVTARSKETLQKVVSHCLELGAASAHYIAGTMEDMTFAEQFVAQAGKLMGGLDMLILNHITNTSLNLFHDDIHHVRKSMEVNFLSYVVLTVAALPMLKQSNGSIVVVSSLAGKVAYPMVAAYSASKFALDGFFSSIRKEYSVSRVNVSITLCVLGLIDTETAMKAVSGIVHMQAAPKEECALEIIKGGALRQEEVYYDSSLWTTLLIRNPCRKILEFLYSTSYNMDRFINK

SMILES | remaining activity at 0.001 µM (11β-HSD1 [1]) | remaining activity at 0.00316 µM (11β-HSD1 [1]) | remaining activity at 0.01 µM (11β-HSD1 [1]) | remaining activity at 0.03162 µM (11β-HSD1 [1]) | remaining activity at 0.1 µM (11β-HSD1 [1]) | Solubility in cosmetic oils: Cetiol B [5] | Solubility in cosmetic oils: DUB DIS [5] | Solubility in cosmetic oils: Finsolv EB [5] | also measured
CC1CCN(C(=O)c2cccc(-c3ccccc3Cl)c2)CC1 [II-e, (2′-chloro-[1,1′-biphenyl]-3-yl)(4-methylpiperidin-1-yl)methanone] | 85% | 70% | 50% | 21% | 4% |  |  |  | 
Cc1ccc(-c2cccc(C(=O)N3CCCCCC3)c2)cc1F [IV-a, azepan-1-yl(3′-fluoro-4′-methyl-[1,1′-biphenyl]-3-yl)methanone] | 74% | 45% | 22% | 8% | 2% |  |  |  | Dermal collagen [2, 6]: 96%; Increase versus cortisone (#2) ([2]; 10 μM in DMSO): +25%; Dermal collagen [2, 7]: 97%; Increase versus cortisone (#2) ([2]; 100 μM in DMSO): +26%; Dermal collagen [2, 8]: 86%; Increase versus cortisone (#2) ([2]; 200 μM in DMSO): +12%; Increase versus UV treatment (#2) ([3]; 10 μM in DMSO): +13%; Dermal collagen III ([3]; 10 μM in DMSO): 90%; Increase versus UV treatment (#2) ([3]; 100 μM in DMSO): +21%; Dermal collagen III ([3]; 100 μM in DMSO): 97%
Cc1ccc(-c2cccc(C(=O)N3CC(C)OC(C)C3)c2)cc1 (centres unmarked) [III-c, (2,6-dimethylmorpholino) (4′-methyl-[1,1′-biphenyl]-3-yl)methanone] |  |  |  |  |  |  |  |  | 11β-HSD1 Remaining activity [% of control] (11β-HSD1 [4]; inhibitor 100 nM): 60 % of control; 11β-HSD1 Remaining activity [% of control] (11β-HSD1 [4]; inhibitor 1 μM): 3 % of control
C[C@]12CCC(=O)C=C1CC[C@@H]1[C@@H]2C(=O)C[C@@]2(C)[C@H]1CC[C@]2(O)C(=O)CO [cortisone, reference compound] |  |  |  |  |  |  |  |  | Dermal collagen ([2]; cortisone alone 0.1 μM in DMSO): 77%
Cc1ccc(-c2cccc(C(=O)N3CCC(C)CC3)c2)cc1 [II-f, (4′-methyl-[1,1′-biphenyl]-3-yl)(4-methylpiperidin-1-yl)methanone] |  |  |  |  |  |  |  |  | 11β-HSD1 Remaining activity [% of control] (11β-HSD1 [4]; inhibitor 1 μM): 2 % of control
Cc1ccc(-c2cccc(C(=O)N3CCC(C)CC3)c2)cc1F [II-d, (3′-fluoro-4′-methyl-[1,1′-biphenyl]-3-yl)(4-methylpiperidin-1-yl)methanone] |  |  |  |  |  |  |  |  | 11β-HSD1 Remaining activity [% of control] (11β-HSD1 [4]; inhibitor 100 nM): 45 % of control
O=C(c1cccc(-c2ccccc2)c1)N1CCCCCC1 [IV-f, [1,1′-biphenyl]-3-yl(azepan-1-yl)methanone] | 83% | 73% | 52% | 28% | 10% | ≥ 10.6%^b | ≥ 10.2%^b | ≥ 10.3%^b | Dermal collagen [2, 6]: 103%; Increase versus cortisone (#2) ([2]; 10 μM in DMSO): +34%; Dermal collagen [2, 7]: 103%; Increase versus cortisone (#2) ([2]; 100 μM in DMSO): +34%; Dermal collagen [2, 8]: 93%; Increase versus cortisone (#2) ([2]; 200 μM in DMSO): +21%; Increase versus UV treatment (#2) ([3]; 10 μM in DMSO): +6%; Dermal collagen III ([3]; 10 μM in DMSO): 85%; Increase versus UV treatment (#2) ([3]; 100 μM in DMSO): +33%; Dermal collagen III ([3]; 100 μM in DMSO): 106%
Cc1ccc(-c2cccc(C(=O)N3CCC(C)CC3)c2)cn1 [II-a, (4-methylpiperidin-1-yl)(3-(6-methylpyridin-3-yl)phenyl)methanone] |  |  |  |  |  | ≥ 13.2%^b | ≥ 10.6%^b | ≥ 10.2%^b | Dermal collagen [2, 6]: 94%; Increase versus cortisone (#2) ([2]; 10 μM in DMSO): +22%; Dermal collagen [2, 7]: 108%; Increase versus cortisone (#2) ([2]; 100 μM in DMSO): +40%; Dermal collagen [2, 8]: 114%; Increase versus cortisone (#2) ([2]; 200 μM in DMSO): +48%; Increase versus UV treatment (#2) ([3]; 10 μM in DMSO): +5%; Dermal collagen III ([3]; 10 μM in DMSO): 84%; Increase versus UV treatment (#2) ([3]; 100 μM in DMSO): +43%; Dermal collagen III ([3]; 100 μM in DMSO): 114%
Cc1ccc(-c2cccc(C(=O)N3CCOC(C)(C)C3)c2)cc1F [III-a, (2,2-dimethylmorpholino) (3′-fluoro-4′-methyl-[1,1′-biphenyl]-3-yl)methanone] | 55% | 37% | 11% | 3% | 0% |  |  |  | remaining activity at 0.00032 µM (11β-HSD1 [1]): 70%
CC1CCN(C(=O)c2cccc(-c3cccc(C(N)=O)c3)c2)CC1 [II-k, 3′-(4-methylpiperidine-1-carbonyl)-[1,1′-biphenyl]-3-carboxamide] |  |  |  |  |  | 3.0% | 2.4% | 3.4% | 
Cc1ccc(-c2cccc(C(=O)N3CCCCCC3)c2)cc1 [IV-c, azepan-1-yl(4′-methyl-[1,1′-biphenyl]-3-yl)methanone] | 70% | 42% | 23% | 9% | 3% | 3.3% | 2.6% | 4.0% | 
Cc1ccc(-c2cccc(C(=O)N3CCCC(C)(C)C3)c2)cc1F [II-h, (3,3-dimethylpiperidin-1-yl)(3′-fluoro-4′-methyl-[1,1′-biphenyl]-3-yl)methanone] | 10% |  |  |  |  |  |  |  | remaining activity at 40 pM (11β-HSD1 [1]): 74%; remaining activity at 0.0001 µM (11β-HSD1 [1]): 45%; remaining activity at 0.00032 µM (11β-HSD1 [1]): 24%
Cc1ccc(-c2cccc(C(=O)N3CC(C)OC(C)C3)c2)cc1F (centres unmarked) [III-b, (2,6-dimethylmorpholino) (3′-fluoro-4′-methyl-[1,1′-biphenyl]-3-yl)methanone] |  |  |  |  |  | 10.0% | 4.3% | 2.6% | 

From patent US10550097B2, “Selective 11-beta-hydroxysteroid dehydrogenase type 1 inhibitors” (DSM IP ASSETS B.V., priority 2015, dated 2020)
